ChEMBL document CHEMBL1201862, “PubChem BioAssay data set” (2004)
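Dose response: 5 concentrations. Exposure: 48 h. Format: 96-well plates. Endpoint: linear interpolation; highest concentration if not reached. At the GI50, growth is halved.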 Active and inactive are the calls of the source. Cut-off read from the data, not from the text of the source: active = GI50 up to about 1.1 µM and inactive = higher.

How the values were obtained:
Experiment in all cases: NCI anticancer screen, dose series, 48 h
786-0 = tested on: 786-0
A498 = tested on: A498
CCRF-CEM = tested on: CCRF-CEM
HL-60 = tested on: HL-60
HT-29 = tested on: HT-29
KM12 = tested on: KM12
M14 = tested on: M14
Malme-3M = tested on: Malme-3M
NCI-H23 = tested on: NCI-H23
OVCAR-5 = tested on: OVCAR-5
RPMI-8226 = tested on: RPMI-8226
SF-539 = tested on: SF-539
SK-MEL-5 = tested on: SK-MEL-5
SN12C = tested on: SN12C
UO-31 = tested on: UO-31
U-251 = tested on: U-251

Measured: GI50

C#CCSc1nc(N)c2ncn(C3OC(COP(=O)(O)O)C(O)C3O)c2n1 (stereo unspecified)
inactive: 786-0 > 239 µM | A498 > 239 µM | CCRF-CEM > 239 µM | HL-60 > 239 µM | HT-29 > 239 µM | KM12 > 239 µM | M14 > 239 µM | Malme-3M > 239 µM | NCI-H23 > 239 µM | OVCAR-5 > 239 µM | RPMI-8226 > 239 µM | SF-539 > 239 µM | SK-MEL-5 > 239 µM | SN12C > 239 µM | UO-31 > 239 µM

Nc1ccc(C2=Nc3ccccc3SC(c3ccccc3O)C2)cc1 (stereo unspecified)
inactive: 786-0 28.8 µM | A498 7.13 µM | CCRF-CEM 12.4 µM | HL-60 23.9 µM | HT-29 42.8 µM | KM12 25.5 µM | M14 54.6 µM | Malme-3M > 100 µM | NCI-H23 30.5 µM | OVCAR-5 > 100 µM | RPMI-8226 17.5 µM | SF-539 38.2 µM | SK-MEL-5 26.1 µM | SN12C 45.5 µM | U-251 45.5 µM | UO-31 29.8 µM

C[N+]1(C)C/C(=C\c2ccc(O)cc2)C(=O)/C(=C/c2ccc(O)cc2)C1
inactive: 786-0 > 100 µM | A498 85.1 µM | CCRF-CEM 23.7 µM | HL-60 19.5 µM | HT-29 > 100 µM | KM12 45.1 µM | M14 > 100 µM | Malme-3M > 100 µM | OVCAR-5 > 100 µM | RPMI-8226 44.7 µM | SF-539 65 µM | SK-MEL-5 > 100 µM | SN12C 18.5 µM | U-251 49.5 µM | UO-31 > 100 µM

Cc1c(C(=O)c2ccccc2C(=O)O)c2ccccc2n1C
inactive: 786-0 > 100 µM | A498 > 100 µM | CCRF-CEM > 100 µM | HL-60 > 100 µM | HT-29 > 100 µM | KM12 > 100 µM | M14 > 100 µM | Malme-3M > 100 µM | NCI-H23 > 100 µM | OVCAR-5 > 100 µM | RPMI-8226 > 100 µM | SF-539 > 100 µM | SK-MEL-5 > 100 µM | U-251 > 100 µM | UO-31 > 100 µM

CC(=O)OC1C[C@H]2C(OC(=O)c3ccccc3)C3C4(OC(C)=O)COC4C[C@H](OC(C)=O)[C@@]3(C)C(OC(C)=O)[C@H](OC(C)=O)C(=C1C)C2(C)C (stereo partly specified)
inactive: 786-0 35.9 µM | A498 24.4 µM | CCRF-CEM 36.7 µM | HL-60 16.7 µM | HT-29 49.3 µM | KM12 59.4 µM | M14 23.2 µM | Malme-3M 71.8 µM | NCI-H23 52.8 µM | OVCAR-5 > 100 µM | RPMI-8226 20.4 µM | SF-539 50 µM | SK-MEL-5 26.3 µM | SN12C 51.2 µM | UO-31 24.9 µM
